No end group written: not given here.
What was measured:
Format in all cases: in vivo, mice
[1] = test system: Capan-1 flank tumor xenografts; test: MRMI of Capan-1 flank tumor xenografts
Method: (§1) For flank xenograft models, 4×10^6 Capan-1 cells suspended in 100 μL of a 6 mg/mL Matrigel (Corning, Corning, NY) solution was injected subcutaneously into the flank of eight-week-old female nu/nu mice. The tumor bearing mice were imaged after tumor volumes exceeded 300 mm^3. For orthotopic intrapancreatic models, the pancreas of four-week-old female nu/nu mice were surgically exposed and 1×10^6 BxPC3-GFP-Luc or PANC-1-GFP-Luc cells suspended in 100 μL of an Matrigel solution (6 mg/mL) was injected into the pancreatic tissue. Prior to imaging, growth of tumor was verified by bioluminescence imaging with intraperitoneal injection of d-luciferin on IVIS Spectrum system (Perkin Elmer, Waltham, MA).
Flank tumor-bearing mice were anesthetized and a tail vein catheter inserted. MR image acquisition was performed on a 7T Biospin (Bruker, Billerica, MA) preclinical small animal scanner with a volume radiofrequency coil. Axial images were obtained using a multi-spin multi-echo (MSME) MRI sequence (500 ms TR, 8.1 ms TE, 900 FA, 4.50 cm×4.50 cm FOV, 1.50 mm slice thickness, 16 slices, 2 averages, 200×200 matrix, 0.0225×0.0225 cm/pixel resolution). Contrast agents were injected at a dose of 0.1 mmol/kg (100 μL) via the tail vein catheter, followed by a saline flush. Images of the tumors were acquired before contrast and at various time points after contrast administration. Gd(HP-DO3A) was used as a control.
Image files were exported and analyzed in Horus software. ROIs were drawn in the tumor, liver, kidney, and muscle. Muscle ROIs were taken from muscle, with other structures (liver, kidney, tumor) identified after comparison with published images and comparison with anatomical landmarks or bioluminescent imaging. Size of ROIs drawn for image analysis are summarized in Supplemental Table S1. The contrast-to-noise ratio of the tumor (CNR) was calculated using the following equation, where σ_noise is the standard deviation of intensities from an ROI drawn outside of the mouse body: […]

[2] = test system: BxPC3-GFP-Luc intrapancreatic tumors; test: MRMI of BxPC3-GFP-Luc intrapancreatic tumors
Method: as §1
(§2) Mice bearing intrapancreatic tumors were anesthetized and a tail vein catheter was inserted. Image acquisition was performed on a MR Solutions 3T MRS 3000 scanner with a mouse radiofrequency coil. Axial images were obtained using a Fast Spin Echo (FSE) MRI sequence (305 ms TR, 11 ms TE, 90° F.A, 4 cm×4 cm FOV, 1 mm slice thickness, 10 slices, echo train length=4, echo spacing=11 ms, 4 averages, 256×256 matrix, […] cm/pixel resolution) with respiratory gating. Images were acquired before contrast and at different time points after contrast injection at a dose of 0.1 mmol/kg (100 μL). For competitive binding experiments, a 5:1 molar ratio of free ZD2 peptide to MT218 was injected in mice bearing intrapancreatic BxPC3 tumor xenografts (n=3) at a dose of 0.1 mmol MT218/kg (100 μL). Images obtained on the MR Solutions 3T scanner were normalized using the Surscalereader.exe (MR Solutions, Guildford, UK) program supplied.
Image files were exported and analyzed in Horus software. ROIs were drawn in the tumor, liver, kidney, and muscle. Muscle ROIs were taken from muscle, with other structures (liver, kidney, tumor) identified after comparison with published images and comparison with anatomical landmarks or bioluminescent imaging. Size of ROIs drawn for image analysis are summarized in Supplemental Table S1. The contrast-to-noise ratio of the tumor (CNR) was calculated using the following equation, where σ_noise is the standard deviation of intensities from an ROI drawn outside of the mouse body:
Image contrast was reported as fold enhancement of contrast to noise ratio of postcontrast images over precontrast images using Fold Enhancement=CNRpost/CNRpre. Statistical analysis of CNR was performed in Minitab Express (Minitab Inc, State College, PA). One-way ANOVA with Fisher Individual Tests for Differences of Means post-hoc testing was performed to determine statistical significance between greater than two means (p<0.05). Student's T test was used to determine statistical significance between two means (p<0.05).

[3] = test system: PANC-1-GFP-Luc intrapancreatic tumor xenografts; test: MRMI of PANC-1-GFP-Luc intrapancreatic tumor xenografts
Method: as §1, §2
Image files were exported and analyzed in Horus software. ROIs were drawn in the tumor, liver, kidney, and muscle. […] The contrast-to-noise ratio of the tumor (CNR) was calculated using the following equation, where σ_noise is the standard deviation of intensities from an ROI drawn outside of the mouse body: […]

LNCaP-CXCR2 tumors = test: MRMI with MT218, LNCaP-CXCR2 xenografts; conditions: 0.04 mmol Gd/kg, 20 min post-injection
Text: (§3) Xenograft models were established by subcutaneous flank injections in athymic nu/nu mice for the 4 prostate cancer cells and tested with MRMI using 0.04 mmol Gd/kg of MT218.

C4-2 tumors = test: MRMI with MT218, C4-2 xenografts; conditions: 0.04 mmol Gd/kg, 20 min post-injection
Text: as §3

PC3 tumors = test: MRMI with MT218, PC3 xenografts; conditions: 0.04 mmol Gd/kg
Text: as §3

With “ZD2-N3-Gd(HP-DO3A) (TVRTSAD; also: conjugated to Gd(HP-DO3A) by click reaction of alkynyl-ZD2 with N3-Gd(HP-DO3A), residue of attachment not given here, Gd complex) [MT218, EDB-FN-targeted MRI contrast agent; ZD2 peptide conjugated to the clinical macrocyclic agent Gd(HP-DO3A)]” the “increase of contrast to noise ratio (CNR)” value ([1]; 0.1 mmol/kg, MT218 at 15 minutes post-injection, maintained at least 35 minutes, Gd(HP-DO3A) for the duration of the experiment) was 4.84 fold, the “CNR compared to the clinical agent Gd(HP-DO3A)” value ([1]; Capan-1 flank) was 273 % CNR of control and the “tumor CNR increase” value ([2]; 0.1 mmol/kg, 10 min post-injection) was 5.3 fold. For the same substance, the “CNR increase with co-injection of excess free ZD2 peptide” value ([2]; 5:1 molar ratio of free ZD2 peptide to MT218, 0.1 mmol MT218/kg) was “approximately 2.5 fold”, the “CNR compared to the clinical agent Gd(HP-DO3A)” value ([2]; BxPC3-GFP-Luc) was 212 % CNR of control and the “CNR increase with MT218 without the free peptide” value ([2]; competitive binding experiment, 0.1 mmol/kg) was “ca. 4.5 fold”. The “intratumoral CNR increase” value ([3]; 0.1 mmol/kg, 10 min postinjection) was “approximately 3.85 fold”, the “CNR compared to the clinical agent Gd(HP-DO3A)” value ([3]; PANC-1-GFP-Luc intrapancreatic) was 164 % CNR of control and the “increase of CNR” value (LNCaP-CXCR2 tumors) was roughly 3 fold. For the same substance, the “increase of CNR” value (C4-2 tumors) was roughly 3 fold, the “CNR of PC3 tumors relative to PC3-DR tumors” value (PC3 tumors) was 3.3 fold and the “CNR over the pre-contrast” value (PC3 tumors; PC3 tumors, 20 min post-injection) was 5 fold.

— patent US20240374763A1, “DIAGNOSIS AND MONITORING USING EXTRADOMAIN-B FIBRONECTIN TARGETED PROBES” (Case Western Reserve University, priority 2020, published 2024)
